How the values were obtained:
MES-SA [1] = assay: In vitro cytotoxic activity was evaluated using the MES-SA multidrug-resistant subline MES-SA/Dx5; assay type: functional, cell-based; settings: Homo sapiens
KB [2] = assay: Resistance factor (RF), ratio between the IC50 on the resistant cells and the IC50 on the corresponding sensitive cells of KB cell line; assay type: functional, Homo sapiens
KB [3] = assay: In vitro cytotoxic activity was evaluated using the KB-3-1 resistant to adriamycin (ADR) subline KB-A1; assay type: functional, cell-based; settings: Homo sapiens
L1210 = assay: In vitro cytotoxic activity was evaluated using the murine leukemia L1210 cell line; assay type: functional, cell-based; settings: Mus musculus
SK-MES-1 = assay: Resistance factor (RF), ratio between the IC50 on the resistant cells and the IC50 on the corresponding sensitive cells of MES cell line; assay type: functional, Homo sapiens
KB 3-1 = assay: In vitro cytotoxic activity was evaluated using the human epidermoid carcinoma cell line KB-3-1; assay type: functional, cell-based
MES-SA [4] = assay: In vitro cytotoxic activity was evaluated using the human uterine sarcoma cell line MES-SA; assay type: functional, cell-based

| Structure (SMILES) | IC50 (MES-SA [1]) [µM] | Resistance factor (KB [2]) | IC50 (KB [3]) [µM] | IC50 (L1210) [µM] | Resistance factor (SK-MES-1) | IC50 (KB 3-1) [µM] | IC50 (MES-SA [4]) [µM] |
| --- | --- | --- | --- | --- | --- | --- | --- |
| COc1cccc2c1C(=O)c1c(O)c3c(c(O)c1C2=O)C[C@@](O)(C(C)=O)C[C@@H]3OC1CC(Br)C(N=[N+]=[N-])C(C)O1 (some centres not stated) | 2 | 1.1 | 0.9 | 0.5 | 0.28 | 0.8 | 7 |
| COc1cccc2c1C(=O)c1c(O)c3c(c(O)c1C2=O)C[C@@](O)(C(C)=O)C[C@@H]3O[C@H]1C[C@H](N)[C@H](O)[C@H](C)O1 [DAUNORUBICIN] | 3 | 295.7 |  | 0.04 | 42.8 |  | 0.07 |
| COc1cccc2c1C(=O)c1c(O)c3c(c(O)c1C2=O)C[C@@](O)(C(=O)CO)C[C@@H]3O[C@H]1C[C@H](N)[C@H](O)[C@H](C)O1 [DOXORUBICIN] | 12 | 333.8 |  | 0.025 | 48 |  | 0.25 |

Reference: ChEMBL document CHEMBL1134999, “Synthesis and cytotoxic activity of a new potent daunomycinone derivative” (Bioorg Med Chem Lett, 2002)
